Data taken from the NIST ThermoML archive (doi:10.1021/je400679k).

Test: xn = mol fraction of the nth substance listed
Details: 101 kPa, Liquid, Vibrating tube method

CNCCCN [N-methyl-1,3-diaminopropane] + CCN(CC)CCO
mass density [kg/m3]
Details | x1 = 0.0999 | x1 = 0.2 | x1 = 0.3001 | x1 = 0.3997 | x1 = 0.5 | x1 = 0.5998 | x1 = 0.7001 | x1 = 0.8 | x1 = 0.8996 | x1 = 1
283.15 K | 892.458 | 890.44 | 888.023 | 885.377 | 882.338 | 878.902 | 874.969 | 870.601 | 866.062 | 860.459
293.15 K | 883.574 | 881.665 | 879.317 | 876.712 | 873.685 | 870.252 | 866.283 | 861.885 | 857.283 | 851.605
303.15 K | 874.574 | 872.785 | 870.463 | 867.945 | 864.94 | 861.519 | 857.522 | 853.099 | 848.439 | 842.69
313.15 K | 865.456 | 863.792 | 861.601 | 859.082 | 856.105 | 852.691 | 848.689 | 844.237 | 839.53 | 833.715
323.15 K | 856.219 | 854.692 | 852.583 | 850.12 | 847.171 | 843.77 | 839.765 | 835.289 | 830.547 | 824.673
333.15 K | 846.874 | 845.474 | 843.452 | 841.042 | 838.132 | 834.751 | 830.75 | 826.265 | 821.487 | 815.559
343.15 K | 837.416 | 836.147 | 834.206 | 831.853 | 828.978 | 825.629 | 821.629 | 817.142 | 812.342 | 806.37
353.15 K | 827.843 | 826.695 | 824.829 | 822.533 | 819.712 | 816.396 | 812.413 | 807.931 | 803.118 | 797.093
363.15 K | 818.122 | 817.116 | 815.306 | 813.074 | 810.325 | 807.063 | 803.095 | 798.611 | 793.772 | 787.723

CNCCCN [N-methyl-1,3-diaminopropane] + CN(CCO)CCO
mass density [kg/m3]
Details | x1 = 0.1001 | x1 = 0.2003 | x1 = 0.2999 | x1 = 0.3997 | x1 = 0.5 | x1 = 0.5999 | x1 = 0.7001 | x1 = 0.8002 | x1 = 0.9 | x1 = 1
293.15 K | 1026.93 | 1012.7 | 997.588 | 981.393 | 964.134 | 944.646 | 923.928 | 900.759 | 876.717 | 851.605
303.15 K | 1019.31 | 1005.01 | 989.787 | 973.417 | 956.077 | 936.426 | 915.36 | 892.077 | 868.035 | 842.69
313.15 K | 1011.66 | 997.273 | 981.94 | 965.391 | 947.946 | 928.152 | 907.016 | 883.714 | 859.287 | 833.715
323.15 K | 1003.95 | 989.479 | 974.031 | 957.394 | 939.738 | 919.85 | 898.494 | 874.972 | 850.467 | 824.673
333.15 K | 996.181 | 981.607 | 966.033 | 949.272 | 931.432 | 911.414 | 889.941 | 866.238 | 841.566 | 815.559
343.15 K | 988.342 | 973.656 | 957.953 | 941.042 | 923.056 | 902.895 | 881.277 | 857.422 | 832.576 | 806.37
353.15 K | 980.415 | 965.631 | 949.783 | 932.732 | 914.593 | 894.29 | 872.517 | 848.523 | 823.509 | 797.093
363.15 K | 972.409 | 957.499 | 941.523 | 924.324 | 906.038 | 885.584 | 863.668 | 839.559 | 814.342 | 787.723
